Laboratory results: EPA's ToxValDB 9.5
Converted amounts (≈) assume the structure as drawn. “And” between values parts separate entries of the source, which are not always exact repeats. Equal entries are not always repeated.

Key:
[1] = tested on: Anatidae; conditions: short-term; duration: 17 days; oral; feed; M; histopathology: nonneoplastic
[2] = tested on: Gallus gallus; conditions: for NOAEL: oral, diet, body weight
[3] = tested on: Meleagris sp.; conditions: short-term; duration: 3 weeks; oral; feed; F; body weight
[4] = tested on: Neovison vison; conditions: reproduction developmental; oral; diet; F; reproduction
[5] = tested on: Rattus norvegicus
[6] = tested on: Canidae; conditions: chronic, oral
[7] = tested on: Colinus virginianus; conditions: acute, oral, mortality
[8] = tested on: Phasianus sp.; conditions: acute; oral; unspecified; mortality
[9] = tested on: Bibionidae; conditions: chronic/long-term
[10] = tested on: Daphnia magna; conditions: chronic/long-term; duration: 21 days; reproduction
[11] = tested on: Landoltia sp.
[12] = tested on: Lepomis macrochirus; conditions: acute; duration: 96 hours; mortality
[13] = tested on: Pimephales promelas; conditions: chronic/long-term
[14] = tested on: Ovis sp.; conditions: for LD50: acute, mortality
[15] = tested on: Sus scrofa; conditions: Not specified
[16] = tested on: Danio rerio; conditions: acute; duration: 96 hours; mortality
[17] = tested on: Anas platyrhynchos
[18] = tested on: Cyprinodon variegatus; conditions: chronic/long-term; duration: 90 days; development
[19] = tested on: Neomysis kadiakensis; conditions: chronic/long-term; duration: 28 days; other
[20] = tested on: Mus musculus; conditions: chronic; duration: 104 weeks; clinical signs
[21] = tested on: Pontoscolex corethrurus; conditions: reproductive; duration: 56 days; mortality
[22] = tested on: Apis mellifera; conditions: acute, mortality
[23] = tested on: Folsomia candida; conditions: chronic/long-term; duration: 28 days; reproduction
[24] = tested on: Hypoaspis aculeifer; conditions: chronic/long-term; duration: 14 days; mortality

Q: With O=c1cc(O)c1=O [Moniliformin] as the compound, how does the NOAEL [1] read?
A: 2.3 mg/kg-day

Q: What about the NOAEL ([2]; chronic, duration: 14 months) of the same compound?
A: 3.8 mg/kg-day

Q: What about the NOAEL ([2]; subchronic, duration: 7 weeks) of the same compound?
A: 1.4 mg/kg-day

Q: And the NOAEL [3]?
A: 1.6 mg/kg-day

Q: And the NOAEL [4]?
A: 0.92 mg/kg-day

Q: And the NOAEL ([5]; short-term, duration: 28 days, oral, gavage, M, Sprague-Dawley, clinical signs)?
A: 6 mg/kg-day

Q: With C[C@@H]1C/C=C/C=C/C=C/C=C/[C@H](O[C@@H]2O[C@H](C)[C@@H](O)[C@H](N)[C@@H]2O)C[C@@H]2O[C@](O)(C[C@@H](O)C[C@H]3O[C@@H]3/C=C/C(=O)O1)C[C@H](O)[C@H]2C(=O)O [Natamycin] as the compound, how does the NOAEL ([6]; duration: 2 years, diet, M/F, Beagle, body weight) read?
A: 6.25 mg/kg-day

Q: What about the NOAEL ([5]; chronic, duration: 2 years, oral, diet, growth) of the same compound?
A: 22.4 mg/kg-day

Q: How did the NOAEL ([6]; duration: 12 months, gavage, Dog Other, clinical chemistry) turn out when CNC(=O)CSP(=O)(OC)OC [Omethoate] was run?
A: 0.025 mg/kg-day

Q: And the LD50 [7]?
A: 9.9 mg/kg

Q: What about the LD50 [8] of the same compound?
A: 29 mg/kg

Q: And the LC50 ([5]; acute, duration: 4 hours, inhalation, mortality)?
A: 0.287 µg/mL (≈ 1.35 µM)

Q: What about the NOAEL ([5]; acute, oral, clinical signs) of the same compound?
A: 0.2 mg/kg-day

Q: What about the LOAEL ([5]; chronic, duration: 2 years, clinical chemistry) of the same compound?
A: 0.04 mg/kg-day

Q: What about the NOAEL ([5]; reproduction developmental, clinical chemistry) of the same compound?
A: 0.03 mg/kg-day

Q: What does the source list for CCOc1cc(Oc2ccc(C(F)(F)F)cc2Cl)ccc1[N+](=O)[O-] [Oxyfluorfen]?
A: NOEC ([9]; duration: 28 days, development): 80 µg/L; NOEC [10]: 13 µg/L; NOEC ([11]; acute, duration: 14 days, frond number): 0.00195 mg/L; LC50 [12]: 0.21 µg/mL (≈ 0.581 µM); NOEC ([13]; duration: 34 days, reproduction): 38 µg/L

Q: With C=C(C)[C@@H]1NC(=O)[C@@H](NC)[C@@H](O)c2cc(Cl)c(O)c(c2)O[C@](C)(CC)[C@@H](C(=O)N2CC=C[C@H]2C(=O)N/C(C(=O)N/C(=C/C(=O)O)C(=O)O)=C(\C)CC)NC1=O [Phomopsin] as the compound, how does the LD50 ([14]; injection, subcutaneous) read?
A: ≥ 0.017 mg/kg

Q: What about the LD50 ([14]; oral) of the same compound?
A: 1.34 mg/kg

Q: And the LOAEL ([14]; subchronic, clinical chemistry)?
A: 12.5 mg/kg-day

Q: And the LD50 ([15]; acute, mortality)?
A: 0.848 mg/kg

Q: What does the source list for P [Phosphine]?
A: LC50 [16]: 0.048 µg/mL (≈ 1.41 µM); NOAEL ([5]; chronic, duration: 2 years, inhalation): 1.1 mg/kg-day; NOAEL ([5]; reproduction developmental, inhalation, mortality): 1.9 mg/kg-day; NOAEL ([5]; subchronic, duration: 90 days, inhalation, mortality): 1.1 mg/kg-day

Q: How did the LD50 ([7]; duration: 2 hours, gavage, M/F) turn out when Cc1nc(N(C)C)nc(OC(=O)N(C)C)c1C [Pirimicarb] was run?
A: 20 mg/kg

Q: What about the LD50 ([7]; diet) of the same compound?
A: 370 mg/kg

Q: With [I-].[K+] [Potassium iodide] as the compound, how does the LEL ([2]; repeat dose other, no effects) read?
A: 5 mg/kg-day

Q: What about the LEL ([15]; repeat dose other, no effects) of the same compound?
A: 8 mg/kg-day

Q: Which results are given for CC(C)(C)c1ccc(CSc2cnn(C(C)(C)C)c(=O)c2Cl)cc1 [Pyridaben]?
A: NOEC ([17]; chronic/long-term): 10 mg/kg-day; NOEC ([17]; short-term, oral, feed, mortality): 659 mg/kg-day; LD50 [7]: > 2250 mg/kg-day; NOEC ([5]; chronic, M, body weight): 3.2 mg/kg-day

Q: For Fc1ccc(Oc2ccnc3cc(Cl)cc(Cl)c23)cc1 [Quinoxyfen], which NOEC ([9]; duration: 27 days) is on record?
A: 128 µg/L

Q: And the NOEC [18]?
A: 0.00409 mg/L

Q: And the NOEC ([11]; chronic/long-term, duration: 14 days)?
A: 0.149 mg/L

Q: What about the NOEC [19] of the same compound?
A: 0.00152 mg/L

Q: Which results are given for Oc1cccc(O)c1 [Resorcinol]?
A: NOAEL [20]: 36 mg/kg-day; NOAEL ([5]; chronic, duration: 103 weeks, oral, gavage, Fischer 344, neurology): 36 mg/kg-day

Q: Which results are given for [Al+3].[Na+].[O-][Si]([O-])([O-])[O-] [Sodium aluminium silicate]?
A: LC50 [16]: > 100 µg/mL; NOEC [10]: 10000 µg/L; NOEC ([13]; duration: 30 days, growth): 86700 µg/L

Q: O=C1[N-]S(=O)(=O)c2ccccc21.[Na+] [Sodium saccharin] was tested. Which NOEC [21] did it give?
A: 100 mg/kg

Q: CN1COCN(Cc2cnc(Cl)s2)/C1=N/[N+](=O)[O-] [Thiamethoxam] was tested. Which LD50 ([22]; dermal) did it give?
A: 0.024 µg/piece (2×) and 0.0121 µg/piece

Q: And the LD50 ([22]; duration: 48 hours, oral, unspecified)?
A: 0.00631 µg/piece

Q: What about the LD50 ([22]; duration: 72 hours, dermal) of the same compound?
A: 5.55 g/ha

Q: And the LD50 ([22]; oral, unspecified)?
A: 0.005 µg/piece (3×) and 0.00936 µg/piece

Q: For C[C@H]1CCCC(=O)CCC/C=C/c2cc(O)cc(O)c2C(=O)O1 [Zearalenone], which NOEL ([15]; reproduction developmental, F, morphology) is on record?
A: 0.01 mg/kg-day

Q: What does the source list for C=C(C)[C@H]1CC=C(C)C(=O)C1 [d-Carvone]?
A: LC50 [16]: 56 µg/mL (≈ 373 µM); NOEC [23]: 25 mg/kg; NOEC [24]: ≥ 200 mg/kg; NOEC ([11]; acute, duration: 192 hours, frond number): 4.6 mg/L; LD50 ([5]; acute, oral, mortality): > 2000 mg/kg-day; NOAEL ([5]; reproduction developmental, organ weight): 30 mg/kg-day

Q: How did the NOAEL ([17]; not reported, other) turn out when Clc1ccc(C(c2ccc(Cl)cc2)C(Cl)Cl)cc1 [p,p'-DDD] was run?
A: 0.06 mg/kg-day

Q: ClC(Cl)=C(c1ccc(Cl)cc1)c1ccc(Cl)cc1 [p,p'-DDE] was tested. Which LOAEL ([17]; reproductive, development) did it give?
A: 0.6 mg/kg-day
